Test results: paper PMC6125784 (Cell chemical biology, 2018)

Target: T1, CobL (Rhodobacter capsulatus, UniProt D5AV04)
T1 sequence (D5AV04 1-396): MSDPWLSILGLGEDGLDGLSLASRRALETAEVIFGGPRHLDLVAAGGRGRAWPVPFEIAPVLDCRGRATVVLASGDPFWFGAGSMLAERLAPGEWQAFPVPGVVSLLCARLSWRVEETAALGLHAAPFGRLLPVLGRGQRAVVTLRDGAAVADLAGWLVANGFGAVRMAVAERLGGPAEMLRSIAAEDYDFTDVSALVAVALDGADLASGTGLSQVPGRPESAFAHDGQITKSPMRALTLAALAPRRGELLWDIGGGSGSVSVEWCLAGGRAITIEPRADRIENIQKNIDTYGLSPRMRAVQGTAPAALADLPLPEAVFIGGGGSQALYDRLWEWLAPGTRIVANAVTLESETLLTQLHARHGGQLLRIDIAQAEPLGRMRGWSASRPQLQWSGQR
Assay: C5 alkylation coupled to CobH, UV-visible and HPLC-MS
Assay type: biochemical
Details: CobH 30 uM, pH 8.0, 28°C

Row | SMILES | C5 alkylation coupled to CobH, UV-visible and HPLC-MS (precorrin-7 60 uM) | C5 alkylation coupled to CobH, UV-visible and HPLC-MS (allyl-SAM 170 uM)
1 | C=CC[S+](CC[C@H](N)C(=O)O)C[C@H]1O[C@@H](n2cnc3c(N)ncnc32)[C@H](O)[C@@H]1O (some centres unmarked) [allyl-SAM] | When precorrin-7 was incubated with CobL, CobH, and allyl-SAM the color | –
2 | CC1=C(CCC(=O)O)C2=N[C@@]1(C)CC1=C(CCC(=O)O)[C@](C)(CC(=O)O)C(=N1)/C=C1\N[C@@](C)([C@@H]3N=C(C2C)[C@](C)(CCC(=O)O)[C@H]3CC(=O)O)[C@@](C)(CC(=O)O)[C@@H]1CCC(=O)O (some centres unmarked) [precorrin-7] | – | When precorrin-7 was incubated with CobL, CobH, and allyl-SAM the color
